Results published in PubChem BioAssay AID1197 (NMMLSC, 2008).
Active and inactive are the calls of the source. The rule behind the calls is not given here.

Test system: LNCaP cell loss, flow cytometry event count, 4 d
Assay: cytotoxicity in LNCaP prostate cancer cells – cell-based, flow cytometry, event count, cytotoxicity control for prostate cell differentiation activator project, dose response (AID 1197)

Question: CN1CCN(CCCNC(=O)c2cc3c(-c4ccc(Cl)cc4)nn(C)c3s2)CC1 was tested. Which EC50 did it give?
Answer: Its EC50 is 12.6 µM (inactive).

Question: With Cc1ccccc1CS(=O)(=O)CCC(=O)NCCCN1CCN(c2ccccc2F)CC1 as the molecule, how does the EC50 read?
Answer: Its EC50 is 6.85 µM.

Question: With CCOc1ccc(-c2cc(C(=O)NCCCN3CCN(CC)CC3)c3ccccc3n2)cc1 as the molecule, how does the EC50 read?
Answer: Its EC50 is 21.7 µM (inactive).

Question: How did the EC50 turn out when COc1ccc(Nc2nc(N)nc(CN3CCC(Cc4ccccc4)CC3)n2)cc1 was run?
Answer: Its EC50 is 17 µM (inactive).

Question: For COc1ccc2cc3cc(C(=O)Nc4ccccc4N4CCN(C)CC4)oc3nc2c1, which EC50 is on record?
Answer: Its EC50 is 19.3 µM (inactive).

Question: How did the EC50 turn out when CCCN(CCC)CCNC(=O)C1CCN(Cc2nc(-c3ccc(Cl)cc3)oc2C)CC1 was run?
Answer: Its EC50 is 15.7 µM (inactive).
